In ChEMBL document CHEMBL1126441, “A novel and selective class of azabicyclic muscarinic agonists incorporating an N-methoxy imidoyl halide or nitrile functionality” (Bioorg Med Chem Lett, 1992):

Experiments:
[1] = molecular target: Muscarinic acetylcholine receptor; assay: In vitro inhibition of [3H]quinuclidinyl benzilate (QNB) binding to muscarinic receptors of rat cerebral cortex; assay type: tissue-based
[2] = molecular target: Muscarinic acetylcholine receptor; assay: In vitro inhibition of oxotremorine-M (OXO-M) binding to muscarinic receptors of rat cerebral cortex; assay type: tissue-based
[3] = molecular target: Muscarinic acetylcholine receptor (Rattus norvegicus) (UniProt P08482+P08483+P08485+P08911+P10980); assay: Relative affinities compared to oxotremorine-M (OXO-M) and [3H]quinuclidinyl benzilate (QNB) for muscarinic receptors; assay type: protein assay
[4] = Partition coefficient (logP); assay type: physicochemical; details: octanol/water
[5] = LogD value represents the distribution coefficient at pH 7.3.; assay type: physicochemical; details: octanol/water
[6] = Compound was evaluated for its dissociation constant.; assay type: ADME
[7] = test system: Rattus norvegicus; assay: Effective dose required to cause 50% fall in mean blood pressure (BP) by the compound on iv administration; assay type: functional
[8] = test system: Rattus norvegicus; assay: The effective dose required to produce a change in the mean power spectrum of the EEG equivalent to that of a standard dose (0.32 mg/kg) of arecoline on iv administration; assay type: functional
[9] = Ratio of 50% fall in mean blood pressure (BP) to rhythmical slow wave activity (RSA) was determined; assay type: functional

Row | Compound | IC50 [1] [nM] | IC50 [2] [nM] | Ratio [3] | logP [4] | logD [5] | pKa [6] | ED50 [7] [mg/kg] | ED Arec [8] [mg/kg] | Ratio [9]
1 | CO/N=C(\C#N)C12CCN(CC1)C2 | 1950 | 19 | 103 | – | – | – | – | – | –
2 | CO/N=C(\Cl)C12CCCN(CC1)C2 (centres undefined) | 3000 | 72 | 42 | 2.12 | 0.18 | 9.24 | 0.32 | 0.029 | 11
3 | CO/N=C(\C#N)[C@H]1CN2CCC1C2 (some centres undefined) | 2300 | 23 | – | – | – | – | – | – | –
4 | CO/N=C(\F)C1CN2CCC1CC2 (centres undefined) | 2000 | 34 | 65 | – | – | – | – | – | –
5 | CO/N=C(\C)C1CN2CCC1CC2 (centres undefined) | – | – | – | 1.88 | -1.09 | 10.3 | > 0.1 | 0.31 | >0.35
6 | CO/N=C(\C)C12CCCN(CC1)C2 (centres undefined) | – | – | – | 1.65 | -1.13 | 10.1 | 0.068 | 0.068 | 1
7 | CO/N=C(\Cl)C12CCN(CC1)C2 | 8500 | 51 | 167 | – | – | – | – | – | –
8 | CO/N=C(\C#N)C12CCCN(CC1)C2 (centres undefined) | 220 | 11 | – | 1.49 | -0.18 | 8.96 | 0.02 | 0.005 | 4
9 | CO/N=C(\F)[C@H]1CN2CC[C@H]1C2 | 3100 | 9 | 344 | – | – | – | – | – | –
10 | CO/N=C(\Br)[C@H]1CN2CC[C@H]1C2 | 3000 | 59 | 51 | – | – | – | – | – | –
11 | CO/N=C(\Cl)C1CN2CCC1CC2 (centres undefined) | 1100 | 69 | 16 | – | – | – | – | – | –
12 | CO/N=C(\Cl)[C@H]1CN2CC[C@H]1C2 | 3000 | 64 | 47 | – | – | – | – | – | –
13 | CO/N=C(\Br)C12CCN(CC1)C2 | 8100 | 160 | 51 | – | – | – | – | – | –
14 | CO/N=C(\C#N)C1CN2CCC1CC2 (centres undefined) | 470 | 33 | 14 | 1.56 | -0.11 | 8.96 | > 0.56 | 0.052 | >10.8
15 | CO/N=C(\F)C12CCCN(CC1)C2 (centres undefined) | 2400 | 43 | 56 | 1.01 | -0.76 | 9.06 | 0.03 | 0.012 | 2.5
16 | CO/N=C(\Br)C12CCCN(CC1)C2 (centres undefined) | 2300 | 190 | 12 | – | – | – | – | – | –
17 | CO/N=C(\F)C12CCN(CC1)C2 | 15500 | 44 | 352 | – | – | – | – | – | –
